Values after ≈ are worked out from the molar mass of the structure shown.
What was measured:
[1] = tested on: Pseudomonas aeruginosa; assay: Antibacterial activity against Pseudomonas aeruginosa MTCC 2453 incubated for 24 hrs by serial two-fold dilution method; format: functional; settings: MTCC 2453, 24 h
[2] = tested on: Escherichia coli; assay: Antibacterial activity against Escherichia coli MTCC 40 incubated for 24 hrs by serial two-fold dilution method; format: functional; settings: MTCC 40, 24 h
[3] = tested on: Pseudomonas aeruginosa; assay: Antibacterial activity against Pseudomonas aeruginosa incubated for 24 hrs by filter paper disc method; format: functional
[4] = tested on: Staphylococcus aureus; assay: Antibacterial activity against Staphylococcus aureus MSSA 22 incubated for 24 hrs by filter paper disc method; format: functional
[5] = tested on: Escherichia coli; assay: Antibacterial activity against Escherichia coli K-12 incubated for 24 hrs by filter paper disc method; format: functional
[6] = tested on: Bacillus subtilis; assay: Antibacterial activity against Bacillus subtilis MTCC 121 incubated for 24 hrs by filter paper disc method; format: functional
[7] = tested on: Salmonella typhimurium; assay: Antibacterial activity against Salmonella typhimurium MTCC98 at 100 ug/mL incubated for 24 hrs by filter paper disc method; format: functional, Salmonella enterica subsp. enterica serovar Typhimurium; settings: Salmonella enterica, MTCC98, 24 h; read-out: DIZ
[8] = tested on: Bacillus subtilis; assay: Antibacterial activity against Bacillus subtilis ATCC 6051 at 100 ug/mL incubated for 24 hrs by filter paper disc method; format: functional; settings: ATCC 6051, 24 h, read-out: DIZ
[9] = tested on: Staphylococcus aureus; assay: Antibacterial activity against Staphylococcus aureus MSSA 22 at 100 ug/mL incubated for 24 hrs by filter paper disc method; format: functional; settings: MSSA 22, 24 h, read-out: DIZ
[10] = tested on: Escherichia coli; assay: Antibacterial activity against Escherichia coli K-12 at 100 ug/mL incubated for 24 hrs by filter paper disc method; format: functional; settings: K-12, 24 h, read-out: DIZ
[11] = tested on: Candida albicans; assay: Antifungal activity against Candida albicans IOA-109 at 100 ug/mL incubated for 18 to 48 hrs by agar disc diffusion method; format: functional; settings: read-out: DIZ
[12] = tested on: A549; assay: Cytotoxicity in human A549 cells by SRB assay; format: functional; settings: read-out: TC50 (the source's name)
[13] = tested on: Candida albicans; assay: Antifungal activity against Candida albicans IOA-109 incubated for 18 to 48 hrs; format: functional
[14] = tested on: Klebsiella pneumoniae; assay: Antibacterial activity against Klebsiella pneumoniae incubated for 24 hrs by filter paper disc method; format: functional
[15] = tested on: Candida albicans; assay: Antifungal activity against Candida albicans IOA-109 at 50 ug/disc incubated for 5 to 6 days by disc diffusion method; format: functional; settings: read-out: DIZ
[16] = tested on: Plasmodium falciparum; assay: Antimalarial activity against Plasmodium falciparum infected in erythrocytes assessed as inhibition of increase in parasite density after 72 hrs; format: functional, organism-based

Structure (SMILES)	MIC [1]	MIC [2]	zone of inhibition at 100 µg/mL [7]	zone of inhibition at 100 µg/mL [8]	zone of inhibition at 100 µg/mL [9]	zone of inhibition at 100 µg/mL [10]	zone of inhibition at 100 µg/mL [11]	further results
CCCCCCCCCCCCCC(=O)NN1C(=O)CSC1c1ccc(F)cc1 (stereo unspecified)	0.35 to 0.7 µg/mL (≈ 0.828 to 1.66 µM)	0.35 to 0.7 µg/mL (≈ 0.828 to 1.66 µM)						
CCCCC/C=C\CCC(O)CCCCCCCC(=O)N1N=C(C)CC1=O (stereo unspecified)								diameter of the inhibition zone (DIZ) [3]: 10 - 18 mm; diameter of the inhibition zone (DIZ) [4]: 10 - 18 mm; diameter of the inhibition zone (DIZ) [5]: 10 - 18 mm; diameter of the inhibition zone (DIZ) [6]: 10 - 18 mm
CCCCCCCCCCCCCCCCCc1nc(-c2cccc(O)c2)n[nH]1			13.1 to 22.2 mm	13.1 to 22.2 mm	13.1 to 22.2 mm	13.1 to 22.2 mm	17.2 to 19 mm	
CCCCCCCCCCCCCCCC(=O)NN1C(=O)CSC1c1ccc(Cl)cc1 (stereo unspecified)	0.35 to 0.7 µg/mL (≈ 0.749 to 1.5 µM)	0.35 to 0.7 µg/mL (≈ 0.749 to 1.5 µM)						
CCCCCCCCCCCCCCCCCc1nnc(S)n1N								CC50 [12]: 0.282 µM
CCCCCCCCCCCCCCCCCc1nc(-c2ccc(O)c(O)c2)n[nH]1			13.1 to 22.2 mm	13.1 to 22.2 mm	13.1 to 22.2 mm	13.1 to 22.2 mm	17.2 to 19 mm	
CCCCCCCCCCCCCC(=O)NN1C(=O)CSC1c1ccccc1 (stereo unspecified)	0.35 to 0.7 µg/mL (≈ 0.865 to 1.73 µM)	0.35 to 0.7 µg/mL (≈ 0.865 to 1.73 µM)						
CCCCCCCCCCCCCCCC(=O)NN1C(=O)CSC1c1ccc(F)cc1 (stereo unspecified)	0.35 to 0.7 µg/mL (≈ 0.777 to 1.55 µM)	0.35 to 0.7 µg/mL (≈ 0.777 to 1.55 µM)						
CCCCCCCCCCCCCCCC(=O)NN1C(=O)CSC1c1ccccc1 (stereo unspecified)	0.35 to 0.7 µg/mL (≈ 0.809 to 1.62 µM)	0.35 to 0.7 µg/mL (≈ 0.809 to 1.62 µM)						
CCCCCCC/C=C\CC(O)CCCCCCC(=O)n1[nH]c(=O)c2ccccc2c1=O (stereo unspecified)								diameter of the inhibition zone (DIZ) [3]: 10 - 18 mm; diameter of the inhibition zone (DIZ) [4]: 10 - 18 mm; diameter of the inhibition zone (DIZ) [5]: 15 - 18 mm; diameter of the inhibition zone (DIZ) [6]: 10 - 18 mm
CCCCC/C=C\CCC(O)CCCCCCCC(=O)Nn1c(C)ccc1C (stereo unspecified)								diameter of the inhibition zone (DIZ) [13]: 17 - 20 mm; diameter of the inhibition zone (DIZ) [4]: 15 - 19 mm; diameter of the inhibition zone (DIZ) [5]: 15 - 19 mm; diameter of the inhibition zone (DIZ) [14]: 15 - 19 mm; diameter of the inhibition zone (DIZ) [6]: 15 - 19 mm
CCCCCCC(O)C/C=C\CCCCCCCc1nc(-c2ccccc2)n[nH]1 (stereo unspecified)			13.1 to 22.2 mm	13.1 to 22.2 mm	13.1 to 22.2 mm	13.1 to 22.2 mm	17.2 to 19 mm	
CC/C=C\C/C=C\C/C=C\CCCCCCCc1nnc(S)n1N								CC50 [12]: 0.264 µM
CCCCC/C=C\CCC(O)CCCCCCCc1nc(-c2ccc(O)c(O)c2)n[nH]1 (stereo unspecified)			13.1 to 22.2 mm	13.1 to 22.2 mm	13.1 to 22.2 mm	13.1 to 22.2 mm	17.2 to 19 mm	
C=CCCCCCCCCc1nc(-c2ccccc2)n[nH]1			13.1 to 22.2 mm	13.1 to 22.2 mm	13.1 to 22.2 mm	13.1 to 22.2 mm	17.2 to 19 mm	
CCCCCCCC(O)CC/C=C\CCCCCC(=O)n1nnc2ccccc21 (stereo unspecified)								zone of inhibition at 50 µg/disc [15]: 16 to 20 mm
CCCCCCC(O)C/C=C\CCCCCCCc1nc(-c2cccc(O)c2)n[nH]1 (stereo unspecified)			13.1 to 22.2 mm	13.1 to 22.2 mm	13.1 to 22.2 mm	13.1 to 22.2 mm	17.2 to 19 mm	
CCCCCCCCCCCCCC(=O)NN1C(=O)CSC1c1ccc(OC)cc1 (stereo unspecified)	0.35 to 0.7 µg/mL (≈ 0.805 to 1.61 µM)	0.35 to 0.7 µg/mL (≈ 0.805 to 1.61 µM)						
C=C[C@H]1CN2CC[C@H]1C[C@H]2[C@H](O/C=C/C=C/CCCCCCCCCCCCCC)c1ccnc2ccc(OC)cc12								EC50 [16]: 7 to 20 µM
CCCCCCCCCCCCCCCCCc1nnc(S)o1								CC50 [12]: 0.143 µM
CCCCCCCCCCCCCCCC(=O)NN1C(=O)CSC1c1ccc(OC)cc1 (stereo unspecified)	0.35 to 0.7 µg/mL (≈ 0.756 to 1.51 µM)	0.35 to 0.7 µg/mL (≈ 0.756 to 1.51 µM)						
CCCCCCCCCCCCCC(=O)NN1C(=O)CSC1c1ccc(Br)cc1 (stereo unspecified)	0.35 to 0.7 µg/mL (≈ 0.724 to 1.45 µM)	0.35 to 0.7 µg/mL (≈ 0.724 to 1.45 µM)						
C=C[C@H]1CN2CC[C@H]1C[C@H]2[C@H](O/C=C/C=C/C=C/C=C/C=C/CCCCCCCCCC)c1ccnc2ccc(OC)cc12								EC50 [16]: 7 to 20 µM
C=CCCCCCCCCc1nc(-c2cccc(O)c2)n[nH]1			13.1 to 22.2 mm	13.1 to 22.2 mm	13.1 to 22.2 mm	13.1 to 22.2 mm	17.2 to 19 mm	
C=C[C@H]1CN2CC[C@H]1C[C@H]2[C@H](OCCCCCCCCCCCC)c1ccnc2ccc(OC)cc12								EC50 [16]: 7 to 20 µM
C=CCCCCCCCCc1nc(-c2ccc(O)c(O)c2)n[nH]1			13.1 to 22.2 mm	13.1 to 22.2 mm	13.1 to 22.2 mm	13.1 to 22.2 mm	17.2 to 19 mm	

Source: ChEMBL document CHEMBL4130493, “An insight into the biological activities of heterocyclic-fatty acid hybrid molecules” (Eur J Med Chem, 2017)
